Source: patent US20240139221A1, “TREATMENT OF HPV-INDUCED NEOPLASIA” (priority 2022, published 2024)

Experiments:
[1] = Bulk stability (accelerated stability, one week; HPLC and XRPD)
Experimental: Bulk stability: Accelerated stability experiments were conducted at 25° C./92% RH and 40° C./75% RH in an open container, 60° C. in a tight container for one week.
Samples were characterized by XRPD and HPLC and inspected for color change.
Accelerated stability experiments were conducted at 25° C./92% RH in an open container, at 40° C./75% RH in an open container, and at 60° C. in a tight container for one week.

[2] = Tablet stability study (purity by HPLC); format: physicochemical
Experimental: Tablets were prepared using the excipients and excipient ratios shown in the first column of the following tables. The tablets were then stored under the conditions indicated and periodically sampled and tested for purity by HPLC.

[3] = Solubility in buffers, water and simulated vaginal fluid at 37° C.; settings: for pH of solution at 2 hrs: 37° C.; for solubility at 0.5 h / solubility at 2 h: 37 °C, thermodynamic from solid
Experimental: About 4 mg of Compound I Pattern 1 was added into 2 mL of buffer solution.
(§1) Solubility was tested in five media, pH 3.0 citrate buffer, pH 4.5 acetate buffer, pH 6.8 phosphate buffer, water, simulated vaginal fluid (pH 4.2) at 37° C. for 0.5 h and 2 h.
The salt amount used is equivalent to 10 mg anhydrous free base. […] The obtained clear solutions were analyzed by pH meter for pH, and solubility was determined by observation.
as §1

[4] = Hygroscopicity by DVS at 25° C.; format: physicochemical; settings: DVS 25° C.; for D. (%) Cycle 1: Desorption cycle 1; for D. (%) Cycle 2: Desorption cycle 2; for S. (%) Cycle 1: Sorption cycle 1; for S. (%) Cycle 2: Sorption cycle 2
Experimental: Hygroscopicity was investigated by DVS at 25° C., using the following method: […]

[5] = Approximate solubility in solvents at 25° C. and 50° C., visual observation; format: physicochemical
Experimental: The maximum volume of each solvent added was 1 mL. Approximate solubility was determined by visual observation.
Maximum volume of each solvent added was 1 mL. Approximate solubility was determined by visual observation.

[6] = 25° C., 92% RH, open container, one week
[7] = 40° C., 75% RH, open container, one week
[8] = 60° C., tight container, one week
[9] = excipients Carbomer (49%) + Hydrated Dextrose (49%)
[10] = excipients Carbomer (49%) + Mannitol (49%)
[11] = excipients PC (49%) + Anhydrous Lactose (49%)
[12] = excipients PC (49%) + MCC (49%)
[13] = acetate buffer, pH 4.5, aqueous buffer
[14] = citrate buffer, pH 3, aqueous buffer
[15] = phosphate buffer, pH 6.8, aqueous buffer
[16] = simulated vaginal fluid, pH 4.2, fassgf or other biorelevant

SMILES: CCOC(=O)[C@H](C)NP(=O)(COCCn1cnc2c(OC)nc(N)nc21)OCc1ccccc1 (stereo partly drawn) [Compound I, ethyl(((2-(2-amino-6-methoxy-9H-purin-9-yl)ethoxy)methyl)(benzyloxy)-phosphoryl)-L-alaninate]
- XRPD after storage ([1]; 25° C., 84% RH, open container, 2 days): No change
- HPLC (purity) after storage [1, 6]: 98.5%
- XRPD after storage [1, 6]: No change
- HPLC (purity) after storage [1, 7]: 95.2%
- XRPD after storage [1, 7]: No change
- HPLC (purity) after storage [1, 8]: 98.5%
- XRPD after storage [1, 8]: No change
- HPLC (purity), Initial ([1]; initial, before storage): 98.7%
- purity by HPLC, 0 months [2, 9]: 99.52
- purity by HPLC, 1 month 25 C./60% RH [2, 9]: 82.44
- purity by HPLC, 1 month 40 C./75% RH [2, 9]: 0.17
- purity by HPLC, 0 months [2, 10]: 98.87
- purity by HPLC, 1 month 25 C./60% RH [2, 10]: 91.54
- purity by HPLC, 1 month 40 C./75% RH [2, 10]: 6.75
- purity by HPLC, 0 months [2, 11]: 99.40
- purity by HPLC, 1 month 25 C./60% RH [2, 11]: 95.98
- purity by HPLC, 1 month 40 C./75% RH [2, 11]: 41.3
- purity by HPLC, 0 months [2, 12]: 98.64
- purity by HPLC, 1 month 25 C./60% RH [2, 12]: 97.16
- purity by HPLC, 1 month 40 C./75% RH [2, 12]: 46.11
- pH of solution at 2 hrs ([3]; Simulated vaginal fluid (pH adjusted with 0.2N NaOH)): (5.53)
- pH of solution at 2 hrs ([3]; Water): (7.55)
- solubility at 0.5 h [3, 13]: > 2 mg/mL
- solubility at 2 h [3, 13]: > 2 mg/mL
- solubility at 0.5 h [3, 14]: > 2 mg/mL
- solubility at 2 h [3, 14]: > 2 mg/mL
- pH of solution at 2 hrs ([3]; pH 3.0 100 mM citrate buffer): (2.98)
- pH of solution at 2 hrs ([3]; pH 4.5 50 mM acetate buffer): (4.50)
- pH of solution at 2 hrs ([3]; pH 6.8 50 mM phosphate buffer): (6.81)
- solubility at 0.5 h [3, 15]: > 2 mg/mL
- solubility at 2 h [3, 15]: > 2 mg/mL
- solubility at 0.5 h [3, 16]: > 2 mg/mL
- solubility at 2 h [3, 16]: > 2 mg/mL
- solubility at 0.5 h ([3]; water): > 2 mg/mL
- solubility at 2 h ([3]; water): > 2 mg/mL
- D. (%) Cycle 1 ([4]; 0% RH): 0.00%
- D. (%) Cycle 1 ([4]; 10% RH): 0.11%
- D. (%) Cycle 1 ([4]; 20% RH): 0.23%
- D. (%) Cycle 1 ([4]; 30% RH): 0.47%
- D. (%) Cycle 1 ([4]; 40% RH): 0.60%
- D. (%) Cycle 2 ([4]; 0% RH): 0.19%
- D. (%) Cycle 2 ([4]; 10% RH): 0.37%
- D. (%) Cycle 2 ([4]; 20% RH): 0.57%
- D. (%) Cycle 2 ([4]; 30% RH): 0.83%
- D. (%) Cycle 2 ([4]; 40% RH): 1.09%
- D. (%) Cycle 2 ([4]; 50% RH): 1.48%
- D. (%) Cycle 2 ([4]; 60% RH): 1.96%
- D. (%) Cycle 2 ([4]; 70% RH): 2.78%
- D. (%) Cycle 2 ([4]; 80% RH): 4.33%
- D. (%) Cycle 2 ([4]; 90% RH): 9.10%
- D. (%) Cycle 2 ([4]; 95% RH): 14.32%
- S. (%) Cycle 1 ([4]; 0% RH): 0.00%
- S. (%) Cycle 1 ([4]; 10% RH): 0.08%
- S. (%) Cycle 1 ([4]; 20% RH): 0.17%
- S. (%) Cycle 1 ([4]; 30% RH): 0.28%
- S. (%) Cycle 1 ([4]; 40% RH): 0.41%
- S. (%) Cycle 1 ([4]; 50% RH): 0.61%
- S. (%) Cycle 1 ([4]; 60% RH): 0.85%
- S. (%) Cycle 1 ([4]; 70% RH): 1.14%
- S. (%) Cycle 1 ([4]; 80% RH): 1.64%
- S. (%) Cycle 1 ([4]; 90% RH): 4.27%
- S. (%) Cycle 1 ([4]; 95% RH): 14.32%
- S. (%) Cycle 2 ([4]; 0% RH): 0.19%
- S. (%) Cycle 2 ([4]; 10% RH): 0.22%
- S. (%) Cycle 2 ([4]; 20% RH): 0.30%
- S. (%) Cycle 2 ([4]; 30% RH): 0.44%
- S. (%) Cycle 2 ([4]; 40% RH): 0.62%
- Solubility (mg/mL) 25° C. ([5]; Acetone): >100 mg/mL
- Solubility (mg/mL) 50° C. ([5]; Acetone): >500 mg/mL
- Solubility (mg/mL) 25° C. ([5]; Acetonitrile): >100 mg/mL
- Solubility (mg/mL) 50° C. ([5]; Acetonitrile): >500 mg/mL
- Solubility (mg/mL) 25° C. ([5]; Dichloromethane): >100 mg/mL
- Solubility (mg/mL) 50° C. ([5]; Dichloromethane): >500 mg/mL
- Solubility (mg/mL) 25° C. ([5]; Ethanol): >100 mg/mL
- Solubility (mg/mL) 50° C. ([5]; Ethanol): >500 mg/mL
- Solubility (mg/mL) 25° C. ([5]; Ethyl acetate (EA)): >100 mg/mL
- Solubility (mg/mL) 50° C. ([5]; Ethyl acetate (EA)): >500 mg/mL
- Solubility (mg/mL) 25° C. ([5]; Heptanes): <2 mg/mL
- Solubility (mg/mL) 50° C. ([5]; Heptanes): <10 mg/mL
- Solubility (mg/mL) 25° C. ([5]; Isopropanol (IPA)): >100 mg/mL
- Solubility (mg/mL) 50° C. ([5]; Isopropanol (IPA)): >500 mg/mL
- Solubility (mg/mL) 25° C. ([5]; Isopropyl acetate): >100 mg/mL
- Solubility (mg/mL) 50° C. ([5]; Isopropyl acetate): >500 mg/mL
- Solubility (mg/mL) 25° C. ([5]; Methanol): >100 mg/mL
- Solubility (mg/mL) 50° C. ([5]; Methanol): >500 mg/mL
- Solubility (mg/mL) 25° C. ([5]; Methyl ethyl ketone): >100 mg/mL
- Solubility (mg/mL) 50° C. ([5]; Methyl ethyl ketone): >500 mg/mL
- Solubility (mg/mL) 25° C. ([5]; Methyl t-butyl ether (MTBE)): <2 mg/mL
- Solubility (mg/mL) 50° C. ([5]; Methyl t-butyl ether (MTBE)): <10 mg/mL
- Solubility (mg/mL) 25° C. ([5]; Tetrahydrofuran): >100 mg/mL
- Solubility (mg/mL) 50° C. ([5]; Tetrahydrofuran): 167 to 250 mg/mL
- Solubility (mg/mL) 25° C. ([5]; Water): 20 to 25 mg/mL
- Solubility (mg/mL) 50° C. ([5]; Water): 25 to 27 mg/mL
